Test results as given in patent US6291442A, “Pharmacological modulators of voltage-gated potassium ion channels” (The General Hospital Corporation, priority 1999, dated 2001).
Entries after “also recorded” stand apart in the source; their conditions may differ. Read-outs that look alike come from different tables or passages of the source.

Experiments:
[1] = test system: Drosophila Shaker H4 potassium ion channels; test: Patch voltage clamp recording, time course of channel closure (deactivation); conditions: for effect on the closing of the ion channel: FIG. 3 and 4; for Approximate Increase in Time Course of Closure: shaker h4 channel patch, 500 µM; for Approximate Decrease in Time Course of Closure: test compound 0.5 mM, compared to closure in the absence of test compound
Description: Standard patch recording methods were used to record potassium channel currents from the transfected cells (Hamill, O. P., Marty, A., Neher, E., Sakmann, B., and Sigworth, F. J., Pfluegers Arch(1981), 391:85, the entire teachings of which are incorporated herein by reference). If expression was sufficiently high, the excised inside-out or excised outside-out recording configurations was used; otherwise the whole cell recording configuration was used. […] Standard extracellular saline was used in the recording pipette, and standard intracellular saline was perfused on the exposed side, or bath side, of the membrane. Test compounds were added to the intracellular saline at the concentration specified.
For recording the time course of channel activation and deactivation, voltage clamp steps were applied from a resting potential of -80 to -100 mV to an activation potential of between -60 and +60 mV; after these activating steps (lasting 5-100 ms in duration), the voltage was returned to a potential of between -120 and -60 mV to monitor the time course of closure, or de-activation, of the channels. Standard experimental solutions contained, in mM: 150 NaCl, 10 KCl, 3 CaCl2, 1 MgCl2, and 10 HEPES, at pH 7.4 in the pipette solution; and 160 KCl, 0.5 MgCl2, 1 EGTA, and 10 HEPES, at pH 7.4 in the bath solution. Solutions with Cd^2+ contained no EGTA.
In Table I, II and III, the time course of closure of Drosophila Shaker H4 potassium ion channels was measured in the presence of a test compound and compared to the time course of closure in the absence of a test compound.

[2] = test system: Drosophila Shaker H4 potassium ion channels; test: Application to intracellular (inside-out patch) versus extracellular (outside-out patch) side of the membrane; format: cell-based; conditions: inside-out versus outside-out excised patch
Procedure: Compounds were applied to the intracellular side of the cell membrane by adding the compound to the solution bathing the exposed face of an excised inside-out patch containing Drosophila Shaker H4 potassium ion channels. Application to the extracellular side of the membrane was performed by adding the compound to the solution bathing the exposed face of an excised outside-out patch containing Drosophila Shaker H4 potassium ion channels.

[3] = test system: Shaker class voltage-gated potassium ion channels
Procedure: At a depolarizing pulse of +60 mV, the steady state blockade of current caused by channel-blockers was measured as the current in the presence of the channel-blocker divided by the current in the absence of the channel-blocker.

[4] = inside-out excised patch voltage clamp

Compound | Approximate Increase in Time Course of Closure [1] | Approximate Decrease in Time Course of Closure [1] | also measured
O=C(O)c1ccc([N+](=O)[O-])cc1Oc1cccc([N+](=O)[O-])c1 | – | – | effect on the maximal level of outward or inward current ([1]; inside-out excised patch voltage clamp, FIG. 3): little or no effect; effect on the closing of the ion channel [1, 4]: slows the closing of the ion channel
O=C(O)c1ccccc1[S+]([O-])c1ccccc1 (centres unmarked) [1-carboxydiphenyl sulfoxide] | 2.2 X | – | –
Cc1c(C)c(C)c(C(=O)c2ccccc2C(=O)O)c(C)c1C [2-(2,3,4,5,6-pentamethylbenzoyl) benzoic acid] | – | 2 X | –
Nc1cc(C(=O)c2ccccc2C(=O)O)ccc1Cl [2-(3-amino-4-chlorobenzoyl)benzoic acid] | 2 X | – | –
COc1cccc(Oc2c(OC)cccc2C(=O)O)c1 [2-(3-methoxyphenoxy)-3-methoxybenzoic acid] | < 2 X | – | –
O=C(O)c1ccccc1Oc1cccc([N+](=O)[O-])c1 [2-(3-nitrophenoxy)benzoic acid] | 3-4 X | – | –
Nc1ccc(C(=O)c2ccccc2C(=O)O)cc1[N+](=O)[O-] [2-(4-amino-3-nitro-benzoyl)benzoic acid] | ≥ 2 X | – | –
O=C(O)c1ccccc1C(=O)c1ccc(Cl)c([N+](=O)[O-])c1 [2-(4-chloro-3-nitrobenzoyl)benzoic acid] | 2 X | – | –
O=C(O)c1ccccc1C(=O)c1ccc(Cl)cc1 [2-(4-chlorobenzoyl)benzoic acid] | 2 X | – | –
Nc1cccc(C(=O)O)c1Oc1ccc(Cl)cc1 [2-(4-chlorophenoxy)-3-aminobenzoic acid] | 9 X | – | –
CCCCN(CCCC)c1ccc(C(=O)c2ccccc2C(=O)O)c(O)c1 [2-(4-dibutylamino-2-hydroxybenzoyl) benzoic acid] | – | 6.4 X | –
COc1ccc(Oc2c(C(=O)O)cccc2[N+](=O)[O-])cc1 [2-(4-methoxyphenoxy)-3-nitrobenzoic acid] | 1.5 X | – | –
Cc1ccc(C(=O)c2ccccc2C(=O)O)cc1 [2-(p-toluoyl)benzoic] | 2 X | – | –
Nc1ccccc1C(=O)c1ccccc1C(=O)O [2-aminobenzophenone-2-carboxylic] | 2 X | – | –
O=C(O)c1c(Cl)c(Cl)c(Cl)c(Cl)c1C(=O)c1ccccc1 [2-benzoyl-3,4,5,6-tetrachloro-benzoic] | – | ≥ 2 X | –
O=C(O)c1ccccc1C(=O)c1ccccc1 [2-benzoylbenzoic acid] | 2.5 X | – | side of the cell membrane from which the compound is effective [2]: effective from only one side of the membrane; also recorded: effective only from the intracellular side of the cell membrane
Cc1ccc(Sc2ccccc2C(=O)O)c(S(N)(=O)=O)c1 [2-sulfamide-4-methyl-2'-carboxydiphenyl sulfide] | < 2 X | – | –
O=C(O)c1ccc(Br)cc1Oc1ccccc1 [4-bromo-2-(phenoxy) benzoic acid] | – | ≥ 2 X | –
COc1cccc(C(=O)c2cc(OC)ccc2C(=O)O)c1 [4-methoxy-2-(3-methoxy-benzoyl)-benzoic acid] | – | ≤ 2 X | –
CC(=O)Nc1ccc(C=Cc2ccc([N+](=O)[O-])cc2S(=O)(=O)O)c(S(=O)(=O)O)c1 [4-nitro-4'-acetamide-2,2'-disulfonate stilbene] | 2 X | – | –
CC(C(=O)O)c1ccc2c(c1)[nH]c1ccc(Cl)cc12 (centres unmarked) [Carprofen, reference compound] | – | 3.2 X | –
Cc1ccc(Cl)c(Nc2ccccc2C(=O)O)c1Cl [Meclofenamic acid, reference compound] | – | 2.5 X | –
Nc1cc(Cl)ccc1Nc1ccccc1C(=O)O [N-(2-amino-4-chlorophenyl) anthranilic acid] | – | 2.4 X | –
CCOc1ccc(Nc2cc([N+](=O)[O-])ccc2C(=O)O)cc1 [N-(4-ethoxyphenyl)-4-nitro anthranilic acid] | – | 5-10 X | effect on the closing of the ion channel [1, 4]: speeds the closing of the ion channel; reduction in the maximal level of outward or inward current ([1]; inside-out excised patch voltage clamp, FIG. 4): < 20%
CC(C(=O)O)c1cccc(Oc2ccccc2)c1 (centres unmarked) [fenoprofen, reference compound] | 2.2 X | – | –
O=C(O)c1cccnc1Nc1cccc(C(F)(F)F)c1 [niflumic acid, reference compound] | 2.4 X | – | –
CC[N+](CC)(CC)CC [tetraethylammonium] | – | – | steady state blockade of current ([3]; tetraethylammonium 5 mM alone, depolarizing pulse +60 mV): 15%; steady state blockade of current ([3]; tetraethylammonium 5 mM in the presence of 10 mM 2-benzoylbenzoic acid, +60 mV): 16%
